Source: US11065616B2, “Methods of making microfluidic devices” (KING ABDULLAH UNIVERSITY OF SCIENCE AND TECHNOLOGY, priority 2015, dated 2021)

Tested on: Hela cells
Assay: Cytotoxicity of Doxorubicin concentrations generated by the microfluidic gradient generator (CCK-8)
Assay type: cell-based, Human
Settings: gradient 100-0 μg/ml DOX at the outlet ports, 24 h incubation, surface modified channels
Procedure: Hela cells were cultured in EMEM media supplemented with 10% fetal bovine serum (FBS) and 1% penicillin-streptomycin at 37° C. in a 5% CO2 humidified atmosphere. After cell detachment, the cell suspension was centrifuged, the pallet was collected, and cells were counted for further plating. Hela cells were seeded in 96 well plates at a density of 5×10^3/well. Alter 24 h, cells were treated with five different concentrations of the anticancer drug Doxorubicin (DOX) generated by the microfluidic gradient generator at a flow rate of 8.5 μl/min. The incubation of cells with test samples lasts for 24 h at 37° C. Then, the culture medium was discarded, and 100 μL of CCK8 solution in MEM media were added to each well and incubated for 4 h in darkness. The absorbance values were measured at […] using the xMark™ microplate absorbance spectrophotometer.
Two types of 3D printer resins (1) FormLabs clear and (2) Spot-Elastic were used to build microfluidic devices. The media for cell cultures were injected by passing the EMEM media through the reported microfluidic gradient generator, Both the inlets were fed with media for the first experiment. […] Doxorubicin was introduced to the cell culture after surface modification, and only one of the inlets was fed with Doxorubicin incorporated EMEM media and the other was fed with normal (Doxorubicin-free) EMEM media. […]

With `COc1cccc2c1C(=O)c1c(O)c3c(c(O)c1C2=O)C[C@@](O)(C(=O)CO)C[C@@H]3O[C@H]1C[C@H](N)[C@H](O)[C@H](C)O1` [DOX, Doxorubicin] the “cell viability versus DOX concentration (in words)” value was “higher viability with a decrease in concentration of DOX”.
